From patent US6706740B2, “Fungicidal heterocyclic aromatic amides and their compositions, methods of use and preparation” (Dow AgroSciences LLC, priority 1999, dated 2004)

Columns and labels:
[1] = test system: Magnaporthe grisea (Pyricularia oryzae—PYRIOR); experiment: microbe, parasite or virus in culture; type: cell-based; conditions: Pyricularia oryzae, read-out: PYRIOR in vitro Growth Inhibition
[2] = test system: Rhizoctonia solani (RHIZSO); experiment: microbe, parasite or virus in culture; type: cell-based; conditions: Rhizoctonia solani, read-out: RHIZSO in vitro Growth Inhibition
[3] = test system: Mycosphaerella graminicola (Septoria tritici—SEPTTR); experiment: In vitro fungal growth inhibition, Mycosphaerella graminicola (SEPTTR); type: cell-based; conditions: Zymoseptoria tritici; 25 ppm in the growth medium; read-out: SEPTTR in vitro Growth Inhibition
[4] = test system: Stagonospora nodorum (Leptosphaeria nodorum—LEPTNO); experiment: In vitro fungal growth inhibition, Stagonospora nodorum (LEPTNO); type: cell-based; conditions: Leptosphaeria; 25 ppm in the growth medium; read-out: LEPTNO in vitro Growth Inhibition
[5] = test system: Ustilago maydis (USTIMA); experiment: microbe, parasite or virus in culture; type: cell-based; conditions: Mycosarcoma maydis, read-out: USTIMA in vitro Growth Inhibition
[6] = test system: Phytophthora infestans (PHYTIN); experiment: microbe, parasite or virus in culture; type: cell-based; conditions: Phytophthora infestans, read-out: PHYTIN in vitro Growth Inhibition
[7] = test system: Phytophthora infestans—PHYTIN; experiment: whole plant or invertebrate; type: in vivo; conditions: Phytophthora, in Solanum lycopersicum, 24 h, read-out: PHYTIN in vivo 1 Day Protectant
[8] = test system: Puccinia recondita—PUCCRT; experiment: Brown Rust of Wheat, in vivo whole plant, 24 Hour Protectant; conditions: wheat plants sprayed at 100 ppm, inoculated after 24 hours, control of fungal infection vs untreated plants; for pest or weed control at 100 ppm: Puccinia, read-out: PUCCRT in vivo 1 Day Protectant
[9] = test system: Erysiphe graminis—ERYSGT; experiment: Powdery Mildew of Wheat, in vivo whole plant, 24 Hour Protectant; conditions: Erysiphe; wheat plants sprayed at 100 ppm, inoculated after 24 hours; control of fungal infection vs untreated plants; read-out: ERYSGT in vivo 1 Day Protectant
[10] = test system: Septoria tritici—SEPTTR; experiment: Leaf Blotch of Wheat, in vivo whole plant, 24 Hour Protectant; conditions: Zymoseptoria tritici, 24 h, wheat plants sprayed at 100 ppm, inoculated after 24 hours; control of fungal infection vs untreated plants; read-out: SEPTTR in vivo 1 Day Protectant
[11] = test system: Leptosphaeria nodorum—LEPTNO; experiment: Glume Blotch of Wheat, in vivo whole plant, 24 Hour Protectant; conditions: Leptosphaeria; wheat plants sprayed at 100 ppm, inoculated after 24 hours; control of fungal infection vs untreated plants; read-out: LEPTNO in vivo 1 Day Protectant

SMILES | inhibition at 25 ppm [1] | inhibition at 25 ppm [2] | inhibition at 25 ppm [3] | inhibition at 25 ppm [4] | inhibition at 25 ppm [5] | inhibition at 25 ppm [6] | pest or weed control at 100 ppm [7] | pest or weed control at 100 ppm [8] | pest or weed control at 100 ppm [9] | pest or weed control at 100 ppm [10] | pest or weed control at 100 ppm [11] | melting point | PUCCRT in vivo 1 Day Protectant [8]
COc1ccnc(C(=O)Nc2ccc(Oc3cccc(C(F)(F)F)n3)cc2)c1O [Compound 463] | < 80% | < 80% | < 80% | < 80% | < 80% | < 80% | < 25% | < 25% | < 25% | 25 to 74% | < 25% | 140 to 141.5 °C | 
COc1ccnc(C(=O)Nc2ccc(Oc3cc(C(F)(F)F)cc(C(F)(F)F)n3)cc2)c1O [Compound 464] | < 80% | < 80% | < 80% | < 80% | < 80% | < 80% | < 25% | < 25% | < 25% | 25 to 74% | 25 to 74% | 179 to 181 °C | 
COc1ccnc(C(=O)Nc2ccc(Oc3ccnc(C(F)(F)F)c3)cc2)c1O [Compound 465] | > 80% | < 80% | < 80% | < 80% | < 80% | < 80% | < 25% | < 25% | < 25% | 25 to 74% | 25 to 74% | 160 to 162 °C | 
COc1ccnc(C(=O)Nc2ccc(Oc3cc(C(F)(F)F)nc(C(F)(F)F)c3)cc2)c1O [Compound 466] | < 80% | < 80% | < 80% | > 80% | < 80% | < 80% | < 25% | < 25% | < 25% | 25 to 74% | 25 to 74% | 198 to 200 °C | 
COc1ccnc(C(=O)Nc2ccc(Oc3cc(Cl)nc(C(F)(F)F)c3)cc2)c1O [Compound 467] | < 80% | < 80% | < 80% | > 80% | < 80% | < 80% | < 25% | < 25% | 25 to 74% | 25 to 74% | 25 to 74% | 198 to 201 °C | 
COc1ccnc(C(=O)Nc2cccc(Oc3ccc(C(F)(F)F)cc3)n2)c1O [Compound 469] | > 80% | < 80% | < 80% | > 80% | < 80% | < 80% | < 25% |  | < 25% | 25 to 74% | 25 to 74% | 149 to 151 °C | + +
COc1ccnc(C(=O)Nc2ccc(Oc3ccc(C(F)(F)F)cc3)cn2)c1O [Compound 470] | > 80% | > 80% | > 80% | > 80% | < 80% | < 80% | < 25% | 25 to 74% | 25 to 74% | 25 to 74% | 25 to 74% | 173 to 175 °C | 
COc1ccnc(C(=O)Nc2ccc(Oc3cccc(C(F)(F)F)c3)nc2)c1O [Compound 471] | < 80% | < 80% | < 80% | > 80% | < 80% | < 80% | < 25% | 25 to 74% | < 25% | 25 to 74% | 25 to 74% | 193 to 195 °C | 
